Where two headings read alike, the source gives them in different places.
Assays:
BT-474 cells = experiment: Combination of poziotinib with other anticancer drugs, synergy on proliferation; type: cell-based; settings: HER2-overexpressed, ER-negative breast cancer cells
MBA-MB-453 cells = experiment: as above; type: cell-based; settings: HER2 overexpressed trastuzumab resistant breast cancer cells; concentrations equal to or lower than the GI50 of poziotinib alone
HER2-positive GC [1] = settings: monotherapy; cited from earlier work
[2] = test system: NSCLC patients having EGFR activating mutations; settings: in vivo; cited from earlier work
HER2-amplified GC cells = settings: in vitro; cited from earlier work
[3] = test system: patients with HER2-positive GC; experiment: Phase I/II study of poziotinib combined with paclitaxel and trastuzumab: efficacy (tumor response RECIST 1.1, survival); type: in vivo, human
Procedure: (§1) A prospective phase I/II study was conducted at 11 treatment centers in Korea. Patients with HER2-positive GC who previously had received one or more lines of chemotherapy were enrolled. Enrolled patients received oral poziotinib (8 mg or 12 mg) once daily for 14 days, followed by 7 days off.
(§2) Patients. […] Key exclusion criteria included: a history of hypersensitivity to drugs containing Cremophor® EL and trastuzumab; previous exposure to taxanes, and symptomatic central nervous system metastasis.
(§3) Treatment Procedures. […] DLTs were evaluated in 6 patients at each poziotinib dose level.
(§4) Safety Analyses and Efficacy. Adverse events (AEs) and TEAEs were evaluated using National Cancer Institute-Common Terminology Criteria for Adverse Events (version 4.03). DLTs were defined as grade […] non-hematologic toxicities (except for alopecia); grade ≥3 diarrhea, nausea and vomiting, despite maximal dosage of anti-diarrhea and/or anti-emetic medication (as applicable); and grade 4 neutropenia sustained for ≥7 days, grade 3-4 neutropenia with fever or infection, grade 4 thrombocytopenia and grade 3 thrombocytopenia sustained for 7 days, or with accompanying bleeding, or requiring transfusion. Left ventricular ejection fraction (LVEF) assessment was performed at baseline, on day 1 of the first 3 cycles and every 3 cycles thereafter. All patients who received at least one dose of poziotinib were included in the safety analysis. Tumor response was evaluated by CT or MRI of the thorax, abdomen and pelvis every 6 weeks using RECIST version 1.1, according to investigator assessment.
(§5) Statistical Analysis. The primary objective of phase I was to assess the safety and tolerability of poziotinib and to determine the MTD of poziotinib when combined with paclitaxel and trastuzumab. The primary objective of the phase II part was to assess the objective response rate (ORR) of poziotinib combined with paclitaxel and trastuzumab. The secondary objectives were to evaluate the safety and tolerability, progression-free survival (PFS), time to tumor progression (TTP) and duration of overall response (DOR).
For phase II, it was hypothesized that an ORR <5% would be ineffective and an ORR >20% would be considered to be clinically significant. Sample size was calculated using Simon's 2-stage minimax design, with 80% power and a significance level of 5%. Of the total 27 target subjects, 13 were required in the 1st stage. If the tumor response was 0 out of 13 patients, the study was planned to be terminated early. However, if at least 1 response was observed, an additional 14 patients would be enrolled in the study.

[4] = test system: patients with HER2-positive GC; experiment: Phase I/II study of poziotinib combined with paclitaxel and trastuzumab: safety (TEAEs, DLT, MTD, dose adjustments); type: in vivo; settings: for MTD of poziotinib: combined with paclitaxel and trastuzumab
Procedure: as §1, §2, §3, §4, §5

[5] = cited from earlier work; for ORR / median PFS: monotherapy
MDA-MB-361 cells = experiment: Combination of poziotinib with other anticancer drugs, synergy on proliferation; type: cell-based; settings: HER2-overexpressed, ER-positive, trastuzumab resistant
MDA-MB-468 cells = experiment: as above; type: cell-based; settings: HER2 negative, ER-negative, HER1-overexpressed triple negative breast cancer cells
MCF-7 cells = experiment: as above; type: cell-based; settings: not HER1 and HER2-overexpressed and ER-positive
SK-BR-3 cells = experiment: as above; type: cell-based; settings: HER2-overexpressed and ER-negative
[6] = test system: HER2-positive breast cancer; settings: in combination with docetaxel plus trastuzumab; cited from earlier work
HER2-positive GC [7] = settings: in combination with chemotherapy; cited from earlier work
[8] = test system: patients with HER2-positive GC; settings: patients who failed prior fluoropyrimidine and platinum, cited from earlier work
[9] = All patients, Phase I 12 mg (5)
[10] = All patients, Phase I Total (12)
[11] = All patients, Phase II RD: 8 mg (32)
[12] = All patients, Total population Total (44)
[13] = Trastuzumab-naïve patients, Phase I 8 mg (n 3)
[14] = Trastuzumab-naïve patients, Phase I Total (n 3)
[15] = Trastuzumab-naïve patients, Phase II RD: 8 mg (n 8)
[16] = Trastuzumab-naïve patients, Total population (n 11)
[17] = Trastuzumab-pretreated Patients, Phase I 8 mg (n 4)
[18] = Trastuzumab-pretreated Patients, Phase I 12 mg (n 5)
[19] = Trastuzumab-pretreated Patients, Phase I Total (n 9)
[20] = Trastuzumab-pretreated Patients, Phase II RD: 8 mg (n 24)
[21] = Trastuzumab-pretreated Patients, Total population (n 33)

## O=c1[nH]cc(F)c(=O)[nH]1 [5-FU, 5-fluorouracil]
BT-474 cells
  synergistic effect when combined with poziotinib: high synergistic effect
MBA-MB-453 cells
  synergistic effect when combined with poziotinib: excellent synergistic effect

## N.N.[Cl][Pt][Cl] [cisplatin]
BT-474 cells
  synergistic effect when combined with poziotinib: high synergistic effect
MBA-MB-453 cells
  synergistic effect when combined with poziotinib: excellent synergistic effect

## COc1cc2ncnc(Nc3ccc(F)c(Cl)c3)c2cc1NC(=O)/C=C/CN1CCCCC1 [dacomitinib]
HER2-positive GC [1]
  ORR: 7.4%
  median PFS: 2.1 months

## C#Cc1cccc(Nc2ncnc3cc(OCCOC)c(OCCOC)cc23)c1 [erlotinib]
[2]
  Patients observed to be resistant due to the EGFR T790M mutation: about 60%

## CS(=O)(=O)CCNCc1ccc(-c2ccc3ncnc(Nc4ccc(OCc5cccc(F)c5)c(Cl)c4)c3c2)o1 [lapatinib]
HER2-amplified GC cells
  anti-tumor activity of dual blockade with trastuzumab: highly synergistic anti-tumor activity

## CC(=O)O[C@H]1C(=O)[C@@]2(C)[C@H]([C@H](OC(=O)c3ccccc3)[C@]3(O)C[C@H](OC(=O)[C@H](O)[C@@H](NC(=O)c4ccccc4)c4ccccc4)C(C)=C1C3(C)C)[C@]1(OC(C)=O)CO[C@@H]1C[C@@H]2O [paclitaxel]
BT-474 cells
  synergistic effect when combined with poziotinib: high synergistic effect
MBA-MB-453 cells
  synergistic effect when combined with poziotinib: excellent synergistic effect

## C=CC(=O)N1CCC(Oc2cc3c(Nc4ccc(Cl)c(Cl)c4F)ncnc3cc2OC)CC1 [poziotinib, 1-[4-[4-(3,4-dichloro-2-fluorophenylaminino)-7-methoxyquinazolin-6-yloxy]-piperidin-1-yl]prop-2-en-1-one]
[3]; All patients, Phase I 8 mg (7)
  Overall survival, Median: 30.6 weeks
  Progression free survival, Median: 17.1 weeks
  Time to tumor progression, Median: 18.2 weeks
[3]; [9]
  Overall survival, Median: 19.9 weeks
  Progression free survival, Median: 17.7 weeks
  Time to tumor progression, Median: 17.7 weeks
[3]; [10]
  Overall survival, Median: 30.6 weeks
  Progression free survival, Median: 17,7 weeks
  Time to tumor progression, Median: 17.9 weeks
[3]; [11]
  Overall survival, Median: 29.5 weeks
  Progression free survival, Median: 13.0 weeks
  Time to tumor progression, Median: 15.0 weeks
[3]; [12]
  Overall survival, Median: 29.5 weeks
  Progression free survival, Median: 16.0 weeks
  Time to tumor progression, Median: 17.1 weeks
[3]; Phase I 8 mg (n = 7)
  Best overall response: CR: 0 n
[3]; Phase I 8 mg, 2 patients
  Duration of overall response, Median: 14.5 weeks
[3]; Phase I 12 mg (n = 5)
  Best overall response: CR: 0 n
  Best overall response: unknown: 0 n
[3]; Phase I 12 mg, 2 patients
  Duration of overall response, Median: 20.4 weeks
[3]; Phase I Total
  Duration of overall response, Median: 15.0 weeks
[3]; Phase I Total (n = 12)
  Best overall response: CR: 0 n
[3]; Phase II
  Patients with tumor shrinkage: Twenty
[3]; Phase II RD: 8 mg, 7 patients
  Duration of overall response, Median: 26.8 weeks
[3]; [13]
  Overall survival, Median: 194.9 weeks
  Progression free survival, Median: 30.6 weeks
[3]; [14]
  Overall survival, Median: 194.9 weeks
  Progression free survival, Median: 30.6 weeks
[3]; [15]
  Disease control rate: 5 n
  Overall survival, Median: 42.6 weeks
  Progression free survival, Median: 18.7 weeks
[3]; [16]
  Overall survival, Median: 59.2 weeks
  Progression free survival, Median: 20.7 weeks
[3]; [17]
  Overall survival, Median: 30.6 weeks
  Progression free survival, Median: 15.5 weeks
[3]; [18]
  Overall survival, Median: 19.9 weeks
  Progression free survival, Median: 17.7 weeks
[3]; [19]
  Overall survival, Median: 21.1 weeks
  Progression free survival, Median: 17.7 weeks
[3]; [20]
  Overall survival, Median: 29.5 weeks
  Progression free survival, Median: 13.0 weeks
[3]; [21]
  Overall survival, Median: 29.5 weeks
  Progression free survival, Median: 15.0 weeks
[4]; Phase I 12 mg (n = 5)
  TEAEs by Maximum Severity: Grade 5 (death): 0 n
  TEAEs leading to death: 0 n
[4]; Phase I part of the current study
  MTD of poziotinib: 8 mg/day
[4]; Phase I, once daily 14 days, 7 days off
  MTD of poziotinib: 8 mg
[4]; human, in vivo
  AE related to poziotinib: Fatigue: 0 n
  AE related to poziotinib: Myalgia: 0 n
  AE related to poziotinib: Vomiting: 0 n
  Left ventricular systolic dysfunction (LVSD): no grade 3 or 4 left ventricular systolic dysfunction
  TEAE ≥Grade 3: Abdominal pain: 0 n
  TEAE ≥Grade 3: Mucosal inflammation: 0 n
  TEAE ≥Grade 3: Pruritus: 0 n
  TEAE ≥Grade 3: Rash: 0 n
  TEAE ≥Grade 3: Stomatitis: 0 n
  TEAEs by Maximum Severity: Grade 1 (mild): 0 n
[5]; continuous dosing
  MTD of poziotinib as monotherapy: 18 mg/day
[5]; intermittent dosing (14 days on and 7 days off)
  MTD of poziotinib as monotherapy: 24 mg/day
[5]; continuous dosing schedule
  ORR: 21%
  median PFS: 9.0 weeks
[5]; intermittent dosing schedule
  ORR: 16%
  median PFS: 12.0 weeks

## CCC1=C[C@@H]2CN(C1)Cc1c([nH]c3ccccc13)[C@@](C(=O)OC)(c1cc3c(cc1OC)N(C)[C@H]1[C@@](O)(C(=O)OC)[C@H](OC(C)=O)[C@]4(CC)C=CCN5CC[C@]31[C@@H]54)C2 [vinorelbine]
BT-474 cells
  synergistic effect when combined with poziotinib: synergistic effect was not observed
MDA-MB-361 cells
  synergistic effect when combined with poziotinib: synergistic effect at some concentrations
MDA-MB-468 cells
  synergistic effect when combined with poziotinib: synergistic effect was observed
MCF-7 cells
  synergistic effect when combined with poziotinib: synergy at every concentration
SK-BR-3 cells
  synergistic effect when combined with poziotinib: sufficient effect was observed to indicate synergy

## pertuzumab: anti-HER2 antibody used for dual blockade with trastuzumab
[6]
  Effect on OS: significantly increased OS
HER2-positive GC [7]
  Effect on OS: did not extend OS

## trastuzumab emtansine
[8]
  ORR: 20.6%
[8]; phase III
  Efficacy compared with paclitaxel: not superior to paclitaxel
